Reference: PubChem BioAssay (NCI)
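Step 1: Grow cells in 96-well plates. Step 2: Expose to compound for 48 hours at 5 concentrations. Step 3: Interpolate endpoints linearly; if unreached, use highest concentration. Definition used: TGI = concentration required for complete inhibition of growth.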

Experiments:
Assay in all cases: NCI tumour cell line growth inhibition, 48 h
[1] = test system: 786-0 renal
[2] = test system: A498 renal
[3] = test system: A549 NSCLC
[4] = test system: ACHN renal
[5] = test system: BT-549 breast
[6] = test system: CAKI-1 renal
[7] = test system: CCRF-CEM leukemia
[8] = test system: COLO 205 colon
[9] = test system: DU-145 prostate
[10] = test system: EKVX NSCLC
[11] = test system: HCC-2998 colon
[12] = test system: HCT-116 colon
[13] = test system: HCT-15 colon
[14] = test system: HL-60(TB) leukemia
[15] = test system: HOP-62 NSCLC
[16] = test system: HOP-92 NSCLC
[17] = test system: HS 578T breast
[18] = test system: HT29 colon
[19] = test system: IGROV1 ovarian
[20] = test system: K-562 leukemia
[21] = test system: KM12 colon
[22] = test system: LOX IMVI melanoma
[23] = test system: M14 melanoma
[24] = test system: MALME-3M melanoma
[25] = test system: MCF7 breast
[26] = test system: MDA-MB-231 breast
[27] = test system: MDA-MB-435
[28] = test system: MDA-N
[29] = test system: MOLT-4 leukemia
[30] = test system: NCI-H226 lung
[31] = test system: NCI-H23 lung
[32] = test system: NCI-H460 lung
[33] = test system: NCI/ADR-RES ovarian
[34] = test system: OVCAR-3 ovarian
[35] = test system: OVCAR-4 ovarian
[36] = test system: OVCAR-5 ovarian
[37] = test system: OVCAR-8 ovarian
[38] = test system: PC-3 prostate
[39] = test system: RPMI-8226 leukemia
[40] = test system: RXF 393 renal
[41] = test system: SF-268 CNS
[42] = test system: SF-295 CNS
[43] = test system: SK-MEL-2 melanoma
[44] = test system: SK-MEL-28 melanoma
[45] = test system: SK-MEL-5 melanoma
[46] = test system: SK-OV-3 ovarian
[47] = test system: SN12C renal
[48] = test system: SNB-19 CNS
[49] = test system: SNB-75 CNS
[50] = test system: SW-620 colon
[51] = test system: T-47D breast
[52] = test system: TK-10 renal
[53] = test system: U251 CNS
[54] = test system: UACC-257 melanoma
[55] = test system: UACC-62 melanoma
[56] = test system: UO-31 renal
[57] = test system: NCI-H522 lung
[58] = test system: SR leukemia
[59] = test system: SF-539 CNS

Measured: TGI

COc1ccc2nc(N/N=C/c3sccc3C)cc(C)c2c1
37.1 µM: [49]
23.8 µM: [12]
36.3 µM: [15]
32.3 µM: [54]
26.4 µM: [16]
43.9 µM: [27]
28.2 µM: [32]
21.7 µM: [42]
32.1 µM: [46]
50.5 µM: [44]
26.9 µM: [2]
56.9 µM: [3]
42.6 µM: [30]
55.3 µM: [17]
> 100 µM: [6] | [20] | [37] | [48] | [51]
99.5 µM: [35]
24 µM: [18]
63.1 µM: [43]
73.5 µM: [53]
31.3 µM: [24]
56.2 µM: [4]
62.6 µM: [40]
39.4 µM: [28]
32.9 µM: [22]
47.6 µM: [14]
27.6 µM: [1]
28.1 µM: [52]
16.1 µM: [26]
44.5 µM: [9]
50.7 µM: [29]
65.1 µM: [56]
25.3 µM: [23]
28.9 µM: [31]
27.1 µM: [55]
48.2 µM: [47]
32.4 µM: [19]
61.3 µM: [36]
65 µM: [50]
32.7 µM: [8]
38.7 µM: [38]
45.8 µM: [34]
45.3 µM: [39]
55.1 µM: [33]
47.8 µM: [41]
32.2 µM: [5]
30.5 µM: [13]
25.5 µM: [45]
55.5 µM: [25]
55.4 µM: [10]
41.2 µM: [11]
38.3 µM: [21]
67 µM: [7]

NC(=Nc1ccccc1Cl)c1ccccc1N
> 100 µM: [1] | [2] | [3] | [4] | [5] | [6] | [7] | [8] | [9] | [10] | [11] | [12] | [13] | [14] | [15] | [17] | [18] | [19] | [20] | [21] | [22] | [23] | [24] | [25] | [26] | [27] | [28] | [29] | [30] | [31] | [32] | [57] | [33] | [34] | [35] | [36] | [37] | [38] | [39] | [40] | [41] | [42] | [43] | [44] | [45] | [46] | [48] | [49] | [58] | [50] | [52] | [53] | [54] | [55] | [56]
86.5 µM: [16]

CC12C=CC(C)(C3C(=O)C4C(C(=O)C31)C1(C)C=CC4(C)S1=O)S2=O (configuration not stated)
> 100 µM: [1] | [3] | [4] | [5] | [6] | [8] | [9] | [10] | [11] | [13] | [15] | [17] | [18] | [19] | [21] | [22] | [23] | [24] | [26] | [28] | [30] | [31] | [32] | [57] | [33] | [34] | [36] | [37] | [38] | [40] | [41] | [42] | [59] | [45] | [46] | [48] | [49] | [52] | [54] | [55] | [56]

O=NNc1ccc2ccccc2n1
> 100 µM: [1] | [2] | [3] | [4] | [5] | [6] | [7] | [9] | [10] | [12] | [13] | [14] | [15] | [17] | [18] | [19] | [20] | [21] | [22] | [23] | [25] | [26] | [27] | [28] | [29] | [30] | [31] | [32] | [57] | [33] | [34] | [35] | [36] | [37] | [38] | [39] | [41] | [42] | [59] | [43] | [44] | [45] | [46] | [47] | [48] | [49] | [58] | [50] | [51] | [52] | [53] | [54] | [55] | [56]
